Values quoted from earlier work in patent US20220031861A1, “COMBINATION THERAPY OF DIFFUSE LARGE B-CELL LYMPHOMA COMPRISING AN ANTI-CD79B IMMUNOCONJUGATES, AN ALKYLATING AGENT AND AN ANTI-CD20 ANTIBODY” (priority 2018, published 2022).

System: R/R DLBCL
[1] = R/R DLBCL, monotherapy and combined with an anti-CD20 monoclonal antibody

Question: For Polatuzumab vedotin, which “complete remission (CR) rates” value [1] is on record?
Answer: Its value is 0-15%.

Question: And the “overall response rates (ORR)” value [1]?
Answer: The value was 13-56%.

Question: And the “CR rate reported previously” value (in combination with an anti-CD20 monoclonal antibody (Morschhauser et al. 2014, ROMULUS))?
Answer: Its value is 15%.
